Source: the NIST ThermoML archive (doi:10.1016/j.fluid.2010.08.010)
± gives the expanded uncertainty stated by the source.

Settings: 101.33 kPa, Liquid, Pycnometric method

SMILES	mass density (298.15 K)	mass density (293.15 K)
Cc1ccccc1C [1,2-dimethylbenzene]	875.9 ± 5.8 kg/m3	
CC#N [acetonitrile]	776.5 ± 1.2 kg/m3	
C=CC#N [acrylonitrile]	800.3 ± 5.7 kg/m3	
Nc1ccccc1 [aniline]	1017.3 ± 6.1 kg/m3	
Clc1ccccc1 [chlorobenzene]		1106 ± 6.3 kg/m3
CN(C)C=O [dimethylformamide]		948.7 ± 5.9 kg/m3
CCCCCCO [hexan-1-ol]	815.3 ± 1.2 kg/m3	
O=[N+]([O-])c1ccccc1 [nitrobenzene]	1198 ± 6.5 kg/m3	
